# Source: US20170182077A1, “METHODS AND PHARMACEUTICAL COMPOSITIONS FOR THE TREATMENT OF ACUTE EXACERBATIONS OF CHRONIC OBSTRUCTIVE PULMONARY DISEASE” (INSERM (INSTITUT NATIONAL DE LA SANTÉ ET DE LA RECHERCHE …, priority 2014, published 2017)
# Assays:
# [1] = system: lung cells (NKT cells) from Air and COPD mice; experiment: Cytokine production by total lung cells stimulated with alpha-GalactosylCeramide (ELISA); type: cell-based, C57B1/6 mice; settings: αGC 100 ng/ml, 48 hrs; for production of IL-22: after Sp challenge vs non infected, ELISA of supernatants
# Procedure: FIG. 3—Lung cells from Air and COPD mice were treated with αGC (100 ng/ml) or not (Ctl, non stimulated) for 48 hrs. The concentrations of IL-22, IL-17, IFN-γ and IL-4 were analyzed by ELISA in the supernatants. Values represented the mean±SEM.
# C57B1/6 mice were exposed to CS generated from 5 cigarettes per day, 5 days a week, over a period of 12 weeks using a smoking machine (Emka, Scireq, Canada).
# Mice were inoculated with a clinical isolate of S. pneumoniae serotype 1 (Sp) (5×10^4 cfu). Bacteria stocks were kept frozen at −80° C. Bacteria were thawn just before infection, and the number of cfu was checked on chocolate plates. Infection was performed by intranasal route (50 μl/mouse).
# Cytokine production was analyzed in total lung cells. For this, 5×10^5 lung cells were seeded on 96-well plates and then stimulated with alpha-GalactosylCeramide, or α-GC (100 ng/ml), and coated anti-CD3 Ab. Forty-eight hours later, supernatants were collected and analyzed for IFN-γ, IL-4, IL-17 and IL-22 concentration by ELISA (R&D Systems).
# [2] = system: peripheral blood mononuclear cells (PBMC); experiment: Th17 cytokine secretion by peripheral blood mononuclear cells exposed to S. pneumoniae or PHA; type: cell-based, human; settings: PHA 1 μg/ml, supernatants after 24 h
# Procedure: Peripheral blood and induced or spontaneous sputum were collected in stable COPD patients (n=10), in smokers (without COPD, n=13)) and in non smoker healthy controls (n=14) (CPP 2008-A00690-55) in order to evaluate ex vivo the Th17 response to infection with S. pneumoniae. Peripheral blood mononuclear cells (PBMC) were purified on Ficoll Paque gradient and 3×10^6 cells/ml in complete RPMI1640 were exposed to S. pneumoniae (MOI=2) or to a positive control, phytohemagglutinin (1 μg/ml) (PHA, Difco). After 90 min, antibiotics were added to stop bacteria growth and supernatants were collected after 24 h incubation. In parallel, another batch of cells was incubated with brefeldin-A (10 μg/ml, Sigma) for 4 h before collection and was used for intracellular immuno-staining of cytokines in lymphocytes.
# [3] = pulmonary cells from Air and COPD mice, after Sp infection, ELISA
Compound,"IL-17 production ([1]; pulmonary cells from Air and COPD mice, after Sp challenge, ELISA)","levels of IFN-y [1, 3]","levels of IL-4 [1, 3]",production of IL-22 ([1]; pulmonary cells from Air mice),production of IL-22 ([1]; pulmonary cells from COPD mice),"response (secretion, mainly IL-17 and IL-22) ([2]; PBMC of COPD patients)",levels of IL-17 and IL-22 ([2]; PBMC of non-smokers and smokers)
CCCCCCCCCCCCCCCCCCCCCCCCCC(=O)N[C@@H](CO[C@H]1O[C@H](CO)[C@H](O)[C@H](O)[C@H]1O)[C@H](O)[C@H](O)CCCCCCCCCCCCCC [alpha-GalactosylCeramide],failed to increase IL-17 production,higher levels,higher levels,higher production of IL-22,absent,–,–
phytohemagglutinin [PHA],–,–,–,–,–,partially altered,significantly increased
